Laboratory results reported in patent US8017807B2, “Tetrahydroxy compound, method for preparing the tetrahydroxy compound, and photoreceptor using the tetrahydroxy compound” (Ricoh Company Limited, priority 2005, dated 2011).

Columns and labels:
[1] = Solubility to alcohol (methanol), visual observation; assay type: physicochemical; settings: background section, no method given
[2] = as above; assay type: physicochemical; set-up: key to Solubility to methanol, solid content 5% by weight / Solubility to methanol, solid content 10% by weight / Solubility to methanol, solid content 20% by weight / Solubility to methanol, solid content 30% by weight / Solubility to methanol, solid content 40% by weight / Solubility to methanol, solid content 50% by weight / Solubility to methanol, solid content 60% by weight: ◯: The compound is perfectly dissolved in methanol, and the resultant liquid contains no solid material.; X: The compound is imperfectly dissolved in methanol and the resultant liquid contains a solid material or is opaque (i.e., is not transparent); settings: for Solubility to methanol, solid content 5% by weight / Solubility to methanol, solid content 10% by weight / Solubility to methanol, solid content 20% by weight / Solubility to methanol, solid content 30% by weight / Solubility to methanol, solid content 40% by weight / Solubility to methanol, solid content 50% by weight / Solubility to methanol, solid content 60% by weight: methanol solution, one hour at room temperature, visual
Procedure: Each of the compound of Example 1 and comparative compounds (6) to (9) was dissolved in methanol to prepare methanol solutions thereof having a solid content of 5%, 10%, 20%, 30%, 40%, 50% or 60% by weight. Alter the solutions were allowed to settle for one hour at room temperature, the solutions were visually observed to determine the solubility of the compounds to methanol. The solubility to methanol was graded as follows:
◯: The compound is perfectly dissolved in methanol, and the resultant liquid contains no solid material.
X: The compound is imperfectly dissolved in methanol and the resultant liquid contains a solid material or is opaque (i.e., is not transparent).

[3] = Crosslinked outermost layer of photoreceptor from methanol coating liquid; image formation; settings: with methyl trimethoxy silane in methanol
Procedure: Preparation of Crosslinked Charge Transport Layer Using Sol-Gel Method
The following components were mixed.
The mixture was agitated for one hour at room temperature to perform a reaction. Then 53.4 mg of tris(2,4-pentanedionate)aluminum (III) was added to the mixture to prepare a coating liquid including methanol as a solvent.
The coating liquid was coated on the above-prepared charge transport layer by a spray coating method and then dried to form an outermost layer with a thickness of 2 μm. The photoreceptor was heated for 1 hour at 130° C. to crosslink the outermost layer.
The photoreceptor was set in the main body of the image forming apparatus (IMAGIO NEO) to produce images. The resultant images had good image qualities.
The procedure for preparation of the outermost layer in Applied Example 1 was repeated except that the compound of Example 1 was replaced with each of the comparative compounds (6) to (9).

[4] = Film formability when mixed 1:1 with alcohol-soluble polyamide resin (CM8000), blade-coated layer; assay type: physicochemical; set-up: key to Film formability: ◯: The resultant layer is transparent.; X: The resultant layer is opaque due to crystallization of the compounds or bad compatibility with the resin; settings: for Film formability: 1:1 by weight with polyamide resin CM8000, solid content 20% by weight, 20 μm layer on aluminum plate, dried at 23° C.; for Film formability (in words): mixed with an alcohol-soluble resin
Procedure: In addition, each of the compound of Example 1 and comparative compounds (6) to (9) was mixed with an alcohol-soluble polyamide resin (CM8000 from Toray Industries, Inc.) in a weight ratio of 1:1 such that the solid content of the mixture is 20% by weight. Each of the mixtures was coated on an aluminum plate by a blade coating method and then dried at room temperature (23° C.) to prepare a layer with a thickness of 20 μm. The thus prepared layers were visually observed to determine the film formability of the layers. The film formability was graded as follows:
◯: The resultant layer is transparent.
X: The resultant layer is opaque due to crystallization of the compounds or bad compatibility with the resin.

| SMILES | Solubility to methanol (present inventors' study of prior-art compounds) [1] | Solubility to methanol (in words) [2] | Solubility to methanol, solid content 5% by weight [2] | Solubility to methanol, solid content 10% by weight [2] | Solubility to methanol, solid content 20% by weight [2] | Solubility to methanol, solid content 30% by weight [2] | Solubility to methanol, solid content 40% by weight [2] | Solubility to methanol, solid content 50% by weight [2] | Solubility to methanol, solid content 60% by weight [2] | Preparation of outermost layer coating liquid in methanol [3] | Film formability [4] | Film formability (in words) [4] |
| --- | --- | --- | --- | --- | --- | --- | --- | --- | --- | --- | --- | --- |
| Cc1ccc(N(c2ccc(C)cc2)c2ccc(C(C)(c3ccc(O)cc3)c3ccc(O)cc3)cc2)cc1 [1,1-bis(4-hydroxyphenyl)-1-[4-(paraditolylamino)phenyl]ethane] | insufficient |  |  |  |  |  |  |  |  |  |  |  |
| Cc1ccc(N(c2ccc(C)cc2)c2ccc(C(C)(c3ccc(O)cc3)c3ccc(O)cc3)cc2)cc1 [Comp. compound (6)] |  | poor solubility to methanol | ◯ | ◯ | ◯ | ◯ | X | X | X | coating liquids could not be prepared | X |  |
| Oc1cccc(N(c2ccccc2)c2ccc(-c3ccc(N(c4ccccc4)c4cccc(O)c4)cc3)cc2)c1 [Comp. compound (7)] |  | poor solubility to methanol | ◯ | ◯ | ◯ | X | X | X | X | coating liquids could not be prepared | X |  |
| CCc1ccc(N(c2ccc(CCO)cc2)c2ccc(CCO)cc2)cc1C [Comp. compound (8)] |  |  | ◯ | ◯ | ◯ | ◯ | X | X | X | coating liquid could be prepared | X |  |
| Cc1ccc(N(c2ccc(C)cc2)c2ccc(C=C(c3ccc(OCCO)cc3)c3ccc(OCCO)cc3)cc2)cc1 [Comp. compound (9)] |  | poor solubility to methanol | X | X | X | X | X | X | X | coating liquids could not be prepared |  |  |
| Cc1ccc(N(c2ccc(C)cc2)c2ccc(C=C(c3ccc(OCC(O)CO)cc3)c3ccc(OCC(O)CO)cc3)cc2)cc1 (stereo not shown) [Compound of Ex. 1, N-{4-[2,2-bis(4-(2,3-dihydroxypropyloxy)phenyl)vinyl]phenyl}-N,N-bis(4-tolyl)amine] |  | good solubility to methanol | ◯ | ◯ | ◯ | ◯ | ◯ | ◯ | ◯ |  | ◯ | good film formability |
| OCC(O)COc1ccc(N(c2ccccc2)c2ccc(-c3ccc(N(c4ccccc4)c4ccc(OCC(O)CO)cc4)cc3)cc2)cc1 (stereo not shown) [Example 2, N,N′-diphenyl-N,N′-bis[4-(2,3-dihydroxypropyloxy)phenyl]benzidine] |  | as good solubility to methanol |  |  |  |  |  |  |  |  |  | as good solubility to methanol and film formability as the compound of Example 1 |
| Oc1cccc(N(c2ccccc2)c2ccc(-c3ccc(N(c4ccccc4)c4cccc(O)c4)cc3)cc2)c1 [N,N′-diphenyl-N,N′-bis(3-hydroxyphenyl)-[1,1′-biphenyl]-4,4′-diamine] | insufficient |  |  |  |  |  |  |  |  |  |  |  |
